Here are results for three molecules from patent publication US20250213474A1, “COMPOSITIONS AND METHODS FOR METAL CONTAINING FORMULATIONS CAPABLE OF MODULATING IMMUNE RESPONSE” (The Regents of the University of Michigan, priority 2021, published 2025).

Data set [1] concerns THP 1 dual-KI-hSTING^WT(R232) reporter cells. Briefly: Cellular viability of chelator-treated THP 1 dual-KI-hSTING WT(R232) reporter cells. The class given is cell-based, human. From the text:
(§1) FIGS. 18A-18F: Chelating metal ions to inhibit cGAS-STING-Type I IFN pathway. (FIG. 18A) Molecular structure of representative chelators that could inhibit cGAS-STING-Type I IFN pathway. (FIGS. 18B-18C) Dose-inhibition curves of the IFN-I response (FIG. 18B) and NF-kB inflammation response (FIG. 18C) by the indicated compounds in DNA/lipofectamine 2000 (ThermoFisher, 11668027) treated THP 1 dual-KI-hSTING^WT(R232) reporter cells (Invivogen, thpd-r232). (FIG. 18D) Cellular viability of FIGS. 18B-18C. (FIG. 18E) Dose-inhibition curves of the IFN-I response by the indicated compounds in DNA/lipofectamine 2000 (ThermoFisher, 11668027) treated THP 1-ISG hSTING^HAQ reporter cells (Invivogen, thp-isg). […]
(§2) Given the interesting function of metal ions on modulating innate immune response in our finding, we further evaluated whether chelating metal ions could inhibit the according innate immune pathways, which may be used to treat autoimmune diseases, such as Systemic lupus erythematosus, Aicardi-Goutieres syndrome, Acute pancreatitis Age-dependent macular degeneration, Alcoholic liver disease, Liver fibrosis, Metastasis, Myocardial infarction, Nonalcoholic steatohepatitis (NASH), Parkinson's disease, Polyarthritis/fetal and neonatal anemia, Sepsis, inflammatory bowel disease, multiple sclerosis, etc. […] By a ISRE induced luminescence, we could read the degree of inhibition. […]

Data set [2] relates to cGAS-STING-Type I IFN pathway. Briefly: Inhibition of DNA/lipofectamine-induced IFN-I response in THP 1 dual-KI-hSTING WT(R232) reporter cells. The note with it: DNA/lipofectamine complex challenging, ISRE induced luminescence. The class given is cell-based, human.
From the text: as §1, §2

The next data set has as its system CT26 colon cancer cells. Briefly: CT26 tumor model, intratumoral cdAMP(ps)2 formulations. The data set is classed as in vivo, Balb/c mice. The procedure:
When tumor size reach ˜60 mm^3, 2 doses of 25 ug/dose cdAMP(ps)2 were administrated intra-tumorally on days 10 and 15. To evaluate antigen-specific immune responses, PBMCs were collected for tetramer staining on day 17 and ELISPOT analysis with AH1 antigen peptides on day 22. […] Although CDN-Zn seemed to better inhibit tumor growth, compared with CDN and CDNs@CaP/PEI-PEG, there was no statistical difference among them. For the survival of mice after treatment, median survival time for untreated, CDN, CDN-Zn and CDNs@CaP/PEI-PEG group was 23 days, 42 days, 64 days and unreached, respectively (FIG. 4B).
All animals were cared for following federal, state, and local guidelines. All work performed on animals was in accordance with and approved by the University Committee on Use and Care of Animals (UCUCA) at University of Michigan, Ann Arbor. Female Balb/c mice of age 6-8 weeks (Jackson Laboratories) were inoculated with 1×10^5 CT26 colon cancer cells. When tumor size achieved ˜100 mm^3, 2 doses of 25 ug cdAMP(ps)2 in different formulations were administrated via intra-tumoral route on day 10 and day 15. Tumor size and survival were monitored every 2 or 3 days. Tumor size was calculated based on equation: volume=length×width^2×0.5. Animals were euthanized when the tumor reached 1.5 cm in diameter or when animals became moribund with severe weight loss or ulceration. At day 17, the percentages of tumor antigen-specific CD8α+ T cells among PBMC were analyzed using the tetramer staining assay as described previously with peptide-MHC tetramer ([…] AH1) (the NIH Tetramer Core Facility, Atlanta, GA). On day 22, ELISPOT assay was performed with PBMC from the treated mice as described previously.
All animals were cared for following federal, state, and local guidelines. All work performed on animals was in accordance with and approved by the University Committee on Use and Care of Animals (UCUCA) at University of Michigan, Ann Arbor. Female Balb/c mice of age 6-8 weeks (Jackson Laboratories) were inoculated with 1×10^5 CT26 colon cancer cells. When tumor size achieved ˜50 mm^3, indicated drugs or formulations were administrated via the indicated route. Tumor size and survival were monitored every 2 or 3 days. Tumor size was calculated based on equation: volume=length×width^2×0.5. Animals were euthanized when the tumor reached 1.5 cm in diameter or when animals became moribund with severe weight loss or un-healing ulceration. At day 17, the percentages of tumor antigen-specific CD8α+ T cells among PBMC were analyzed using the tetramer staining assay as described previously with peptide-MHC tetramer ([…] AH1) (the NIH Tetramer Core Facility, Atlanta, GA). […]
We also evaluated a subset of the formulations mentioned above in tumor-bearing mice. […]

[3] abbreviates: 2 doses of 25 ug/dose cdAMP(ps)2 intratumorally on days 10 and 15.

Take `O=C1O[C@H]2[C@@H]3OC(=O)c4cc(O)c(O)c(O)c4-c4c(O)c(O)c5oc(=O)c6c(c(O)c(O)c7oc(=O)c4c5c76)-c4c(cc(O)c(O)c4O)C(=O)OC[C@H]3OC(O)[C@@H]2OC(=O)c2cc(O)c(O)c(O)c2-c2c1cc(O)c(O)c2O` (mixture of isomers) [Punicalagin]: in data set [1], the “tolerability in in-vitro assay (cellular viability)” value was “well-tolerated”. Also, in data set [2], the “IC50 of DNA-induced Type I IFN response” value is on record as “as low as nanomolar level”.

Regarding `O=C(OC[C@H]1O[C@@H](OC(=O)c2cc(O)c(O)c(OC(=O)c3cc(O)c(O)c(O)c3)c2)[C@H](OC(=O)c2cc(O)c(O)c(OC(=O)c3cc(O)c(O)c(O)c3)c2)[C@@H](OC(=O)c2cc(O)c(O)c(OC(=O)c3cc(O)c(O)c(O)c3)c2)[C@@H]1OC(=O)c1cc(O)c(O)c(OC(=O)c2cc(O)c(O)c(O)c2)c1)c1cc(O)c(O)c(OC(=O)c2cc(O)c(O)c(O)c2)c1` [tannin acid, Tannic acid], the “tolerability in in-vitro assay (cellular viability)” value in data set [1] was “well-tolerated”. Besides, the “IC50 of DNA-induced Type I IFN response” value in data set [2] is “as low as nanomolar level”.

For the molecule cdAMP(ps)2 [free CDN], in the data set with CT26 colon cancer cells (setting [3]), the “average tumor growth compared with the untreated group” value is listed as “greatly delayed” and the median survival time is reported as 42 days. Further, the “AH1 antigen-specific T cell response (ELISPOT)” value in the data set with CT26 colon cancer cells (day 22, seven days after the 2nd dose) is “significant AH1 antigen-specific T cell response”. Further, the complete tumor regression in the data set with CT26 colon cancer cells (individual tumor growth curves, 5 mice per group) was 2 out of 5.
